Consider 8 compounds from BindingDB's records for doi:10.1016/j.bmcl.2011.10.116 (The University of Queensland, 2012).

For this experiment, the target named is Beta-lactamase (Pseudomonas aeruginosa, UniProt Q79MP6). Description: Competitive inhibition of Pseudomonas aeruginosa beta-lactamase IMP-1 assessed as formation of 4-nitrothiophenolate at pH 7 using CENTA as chromogenic substrate.
Chain of Beta-lactamase (Q79MP6 whole entry): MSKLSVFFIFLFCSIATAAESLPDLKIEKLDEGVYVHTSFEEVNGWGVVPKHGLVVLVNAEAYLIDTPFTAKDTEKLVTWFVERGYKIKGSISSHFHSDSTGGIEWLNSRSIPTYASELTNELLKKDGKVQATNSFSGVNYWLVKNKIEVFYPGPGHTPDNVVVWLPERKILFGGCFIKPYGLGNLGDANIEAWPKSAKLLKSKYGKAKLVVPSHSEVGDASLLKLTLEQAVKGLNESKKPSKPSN
As a reminder, the Ki is the dissociation constant of the complex between target and ligand, obtained from inhibition or displacement. For `O=C(c1ccccc1)c1ccc(-c2nnc(S)[nH]2)cc1`, the Ki was 75 µM.
The figure for `NC(S)=NNC(=O)c1ccccc1` is 19 µM; for `NC(=S)NNC(=O)c1ccc(C(=O)c2cccc([N+](=O)[O-])c2)cc1` it is 16 µM.
Next, `Cc1ccc(C(=O)c2ccc(C(=O)NNC(N)=S)cc2)cc1`: 41 µM; `NC(=S)NNC(=O)c1ccc(C(=O)c2ccccc2)cc1`: 13 µM.
On to `NC(=S)NNC(=O)c1ccc(C(=O)c2ccccc2Cl)cc1`, for which the Ki stood at 14 µM.
On to `NC(=S)NNC(=O)c1ccc(Cc2ccccc2)cc1`, for which the Ki came to 18 µM.
The figure for `NC(=S)NNC(=O)c1ccc(C(=O)c2ccc([N+](=O)[O-])cc2)cc1` is 11 µM.
